Values of other authors, collected in patent publication US12296127B2, “Intravesical drug delivery devices” (Massachusetts Institute of Technology, priority 2007, dated 2025).

Tests used:
[1] = delivered orally or transdermally
[2] = oral delivery (ELMIRON); high first pass effect

Compound: CCN(CC)CC#CCOC(=O)C(O)(c1ccccc1)C1CCCCC1 (stereo not drawn) [oxybutynin]
- patients taking the drug who experience side effects [1]: approximately 61%
- patients who stop treatment due to the severity of the side effects [1]: 7 to 11%

Compound: Pentosan polysulfate sodium [PPS]
- bioavailability [2]: 3%
